Laboratory results reported in publication PMC3914206.

Columns and labels:
Format in all cases: binding
Conditions in all cases: Compound Concentration 10 µM
[1] = molecular target: T1, panel of 442 kinases (Homo sapiens, UniProt O15264)
T1 construct: purchased KINOMEscan
T1 sequence (O15264 1-365): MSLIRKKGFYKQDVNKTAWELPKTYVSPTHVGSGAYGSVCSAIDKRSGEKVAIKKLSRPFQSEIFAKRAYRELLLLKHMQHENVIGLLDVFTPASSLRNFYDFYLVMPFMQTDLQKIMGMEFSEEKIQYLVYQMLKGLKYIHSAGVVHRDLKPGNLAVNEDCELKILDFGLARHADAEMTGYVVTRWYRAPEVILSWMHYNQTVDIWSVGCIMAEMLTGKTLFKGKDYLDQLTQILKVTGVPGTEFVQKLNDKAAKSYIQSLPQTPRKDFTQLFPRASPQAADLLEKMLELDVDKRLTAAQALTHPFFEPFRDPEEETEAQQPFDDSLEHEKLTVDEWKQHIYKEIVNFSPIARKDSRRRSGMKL
Excerpt: (§1) We assessed the selectivity of members of this scaffold using the KINOMEscan methodology across a near comprehensive panel of 442 kinases [[18,27]].

[2] = molecular target: T2, panel of 442 kinases (Homo sapiens, UniProt Q9HC98)
T2 construct: purchased KINOMEscan
Excerpt: as §1

[3] = molecular target: T3, panel of 442 kinases (Homo sapiens, UniProt P49137)
T3 construct: purchased KINOMEscan
Excerpt: as §1

T3 sequence (P49137 whole entry): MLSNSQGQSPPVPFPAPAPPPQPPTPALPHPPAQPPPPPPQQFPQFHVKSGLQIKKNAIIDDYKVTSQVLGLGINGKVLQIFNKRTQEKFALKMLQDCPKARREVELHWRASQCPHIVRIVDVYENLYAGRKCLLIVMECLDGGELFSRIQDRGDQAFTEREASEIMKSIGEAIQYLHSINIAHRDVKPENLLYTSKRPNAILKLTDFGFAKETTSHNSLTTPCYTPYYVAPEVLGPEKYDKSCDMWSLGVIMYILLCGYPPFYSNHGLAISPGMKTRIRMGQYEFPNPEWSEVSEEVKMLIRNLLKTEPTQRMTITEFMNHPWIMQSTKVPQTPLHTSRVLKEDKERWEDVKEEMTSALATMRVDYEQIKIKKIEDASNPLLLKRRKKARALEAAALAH
T2 sequence (Q9HC98 whole entry): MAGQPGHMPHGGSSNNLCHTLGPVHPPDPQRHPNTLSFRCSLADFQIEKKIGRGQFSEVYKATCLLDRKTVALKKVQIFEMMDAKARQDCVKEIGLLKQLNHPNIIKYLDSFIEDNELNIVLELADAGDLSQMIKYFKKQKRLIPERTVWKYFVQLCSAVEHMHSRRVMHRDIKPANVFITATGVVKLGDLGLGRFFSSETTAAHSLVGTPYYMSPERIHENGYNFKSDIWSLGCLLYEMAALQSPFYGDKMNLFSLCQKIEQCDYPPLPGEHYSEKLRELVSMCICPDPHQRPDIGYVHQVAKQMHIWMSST

| SMILES | KINOMEscan: p38-delta [1] | KINOMEscan: NEK6 [2] | KINOMEscan: MAPKAPK2 [3] |
| --- | --- | --- | --- |
| CCOc1cc(C(=O)N2CCC(N3CCN(C)CC3)CC2)ccc1Nc1ncc2c(n1)N(C1CCCC1)c1ccccc1C(=O)N2C [Compound 26] | 100 | 100 | 100 |
| COc1cc(C(=O)N2CCC(N3CCN(C)CC3)CC2)ccc1Nc1ncc2c(n1)N1CCc3cccc(c31)C(=O)N2C [Compound 24] | – | 56 | – |
| COc1cc(C(=O)N2CCC(N3CCN(C)CC3)CC2)ccc1Nc1ncc2c(n1)N(C)c1ccccc1C(=O)N2C [15 (LRRK2-IN-1)] | 72 | 76 | 100 |
| COc1cc(C(=O)N2CCC(N3CCN(C)CC3)CC2)ccc1Nc1ncc2c(n1)N(C1CCCC1)c1ccccc1C(=O)N2C [Compound 25, 11-cyclopentyl-2-((2-methoxy-4-(4-(4-methylpiperazin-1-yl)piperidine-1-carbonyl)phenyl)amino)-5-methyl-5H-benzo[e]pyrimido[5,4-b][1,4]diazepin-6(11H)-one] | 100 | 100 | 100 |
